Our source for the Kd values is ChEMBL document CHEMBL1150977, “A quantitative analysis of kinase inhibitor selectivity” (Nat Biotechnol, 2008).

pKd: −log10 of the molar value. Where only a bound is given, the exact number is not on record here.

Assay [1] addresses Serine/threonine-protein kinase PLK3 (Homo sapiens, UniProt Q9H4B4).
For assay [2], the target named is Tyrosine-protein kinase ABL1 (Homo sapiens, UniProt P00519, H396P).
The target of assay [3] is 5'-AMP-activated protein kinase catalytic subunit alpha-2 (Homo sapiens, UniProt P54646).
Assay [4] has as its target Tyrosine-protein kinase ABL1 (Homo sapiens, UniProt P00519, M351T).
Assay [5] addresses Mitogen-activated protein kinase kinase kinase kinase 4 (Homo sapiens, UniProt O95819).
For assay [6], the target named is Fibroblast growth factor receptor 2 (Homo sapiens, UniProt P21802).
Chain of Fibroblast growth factor receptor 2 (P21802 whole entry): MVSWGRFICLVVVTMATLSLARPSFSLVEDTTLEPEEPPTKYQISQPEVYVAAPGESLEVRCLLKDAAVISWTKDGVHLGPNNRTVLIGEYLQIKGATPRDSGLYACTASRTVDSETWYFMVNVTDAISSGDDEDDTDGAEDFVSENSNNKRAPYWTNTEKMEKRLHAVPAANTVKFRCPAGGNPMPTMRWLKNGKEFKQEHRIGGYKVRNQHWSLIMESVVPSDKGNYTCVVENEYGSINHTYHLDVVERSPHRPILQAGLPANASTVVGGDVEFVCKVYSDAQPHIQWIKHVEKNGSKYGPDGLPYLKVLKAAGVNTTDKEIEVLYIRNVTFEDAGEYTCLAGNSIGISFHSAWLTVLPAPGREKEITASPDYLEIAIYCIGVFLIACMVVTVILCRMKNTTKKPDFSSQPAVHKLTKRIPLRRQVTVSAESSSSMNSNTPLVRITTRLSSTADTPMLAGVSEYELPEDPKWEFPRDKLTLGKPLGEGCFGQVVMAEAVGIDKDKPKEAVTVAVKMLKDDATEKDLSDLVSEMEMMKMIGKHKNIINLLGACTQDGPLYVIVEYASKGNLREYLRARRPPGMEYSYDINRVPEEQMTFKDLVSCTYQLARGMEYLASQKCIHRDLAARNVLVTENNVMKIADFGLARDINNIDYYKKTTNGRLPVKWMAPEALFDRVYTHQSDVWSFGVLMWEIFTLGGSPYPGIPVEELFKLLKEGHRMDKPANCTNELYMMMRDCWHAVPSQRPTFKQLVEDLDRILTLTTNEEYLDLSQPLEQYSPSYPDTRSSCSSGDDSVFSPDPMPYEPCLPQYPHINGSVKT
Assay [7] addresses Serine/threonine-protein kinase N1 (Homo sapiens, UniProt Q16512).
Assay [8] has as its target Serine/threonine-protein kinase 25 (Homo sapiens, UniProt O00506).
The target of assay [9] is Serine/threonine-protein kinase N2 (Homo sapiens, UniProt Q16513).
Assay [10] addresses Cyclin-dependent kinase 17 (Homo sapiens, UniProt Q00537).
Assay [11] concerns the target Tyrosine-protein kinase JAK1 (Homo sapiens, UniProt P23458).
In assay [12] the target is Calcium/calmodulin-dependent protein kinase type II subunit beta (Homo sapiens, UniProt Q13554).
In assay [13] the target is Vascular endothelial growth factor receptor 3 (Homo sapiens, UniProt P35916).
The target in assay [14] is Tyrosine-protein kinase Fer (Homo sapiens, UniProt P16591).
Chain of Tyrosine-protein kinase Fer (P16591 whole entry): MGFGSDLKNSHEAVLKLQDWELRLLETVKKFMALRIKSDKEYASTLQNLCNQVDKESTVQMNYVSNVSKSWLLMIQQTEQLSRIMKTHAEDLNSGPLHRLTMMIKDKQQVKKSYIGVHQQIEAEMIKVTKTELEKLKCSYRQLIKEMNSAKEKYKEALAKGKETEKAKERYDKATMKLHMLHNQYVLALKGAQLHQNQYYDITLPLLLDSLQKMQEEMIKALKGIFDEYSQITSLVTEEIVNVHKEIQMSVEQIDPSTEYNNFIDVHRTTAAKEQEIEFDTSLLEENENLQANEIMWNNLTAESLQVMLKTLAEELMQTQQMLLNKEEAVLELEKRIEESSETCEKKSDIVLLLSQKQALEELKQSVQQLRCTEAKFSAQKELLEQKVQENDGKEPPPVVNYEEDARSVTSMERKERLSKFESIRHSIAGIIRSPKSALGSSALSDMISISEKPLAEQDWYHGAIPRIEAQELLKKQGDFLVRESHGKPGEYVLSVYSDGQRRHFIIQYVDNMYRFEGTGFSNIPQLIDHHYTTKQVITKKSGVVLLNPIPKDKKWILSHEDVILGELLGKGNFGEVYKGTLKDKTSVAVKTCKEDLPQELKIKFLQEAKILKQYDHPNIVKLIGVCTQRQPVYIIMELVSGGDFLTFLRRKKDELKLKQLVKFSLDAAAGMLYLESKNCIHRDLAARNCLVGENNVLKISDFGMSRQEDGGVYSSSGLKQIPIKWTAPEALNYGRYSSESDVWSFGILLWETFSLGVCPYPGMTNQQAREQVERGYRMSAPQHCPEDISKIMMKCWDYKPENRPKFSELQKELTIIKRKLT
For assay [15], the target named is Insulin-like growth factor 1 receptor (Homo sapiens, UniProt P08069).
Chain of Insulin-like growth factor 1 receptor (P08069 31-736 limits assumed): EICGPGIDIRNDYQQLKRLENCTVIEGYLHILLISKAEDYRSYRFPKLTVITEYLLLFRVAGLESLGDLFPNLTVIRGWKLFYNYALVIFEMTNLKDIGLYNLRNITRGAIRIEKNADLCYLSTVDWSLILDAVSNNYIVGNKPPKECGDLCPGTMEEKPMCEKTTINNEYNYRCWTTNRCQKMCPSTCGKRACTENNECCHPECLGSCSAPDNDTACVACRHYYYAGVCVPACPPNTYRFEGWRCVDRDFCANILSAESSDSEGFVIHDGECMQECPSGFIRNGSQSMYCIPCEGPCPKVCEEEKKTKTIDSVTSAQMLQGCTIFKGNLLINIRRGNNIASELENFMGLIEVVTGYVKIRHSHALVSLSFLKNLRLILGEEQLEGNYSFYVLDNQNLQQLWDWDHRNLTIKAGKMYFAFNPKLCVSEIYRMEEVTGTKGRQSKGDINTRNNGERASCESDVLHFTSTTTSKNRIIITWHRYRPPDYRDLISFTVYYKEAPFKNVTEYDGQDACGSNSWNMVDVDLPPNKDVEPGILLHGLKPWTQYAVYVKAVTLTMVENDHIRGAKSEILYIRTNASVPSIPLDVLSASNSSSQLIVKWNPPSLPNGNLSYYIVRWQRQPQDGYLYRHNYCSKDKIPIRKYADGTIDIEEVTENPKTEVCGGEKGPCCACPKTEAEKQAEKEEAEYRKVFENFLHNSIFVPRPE
Chain of Insulin-like growth factor 1 receptor (P08069 741-1367 limits assumed): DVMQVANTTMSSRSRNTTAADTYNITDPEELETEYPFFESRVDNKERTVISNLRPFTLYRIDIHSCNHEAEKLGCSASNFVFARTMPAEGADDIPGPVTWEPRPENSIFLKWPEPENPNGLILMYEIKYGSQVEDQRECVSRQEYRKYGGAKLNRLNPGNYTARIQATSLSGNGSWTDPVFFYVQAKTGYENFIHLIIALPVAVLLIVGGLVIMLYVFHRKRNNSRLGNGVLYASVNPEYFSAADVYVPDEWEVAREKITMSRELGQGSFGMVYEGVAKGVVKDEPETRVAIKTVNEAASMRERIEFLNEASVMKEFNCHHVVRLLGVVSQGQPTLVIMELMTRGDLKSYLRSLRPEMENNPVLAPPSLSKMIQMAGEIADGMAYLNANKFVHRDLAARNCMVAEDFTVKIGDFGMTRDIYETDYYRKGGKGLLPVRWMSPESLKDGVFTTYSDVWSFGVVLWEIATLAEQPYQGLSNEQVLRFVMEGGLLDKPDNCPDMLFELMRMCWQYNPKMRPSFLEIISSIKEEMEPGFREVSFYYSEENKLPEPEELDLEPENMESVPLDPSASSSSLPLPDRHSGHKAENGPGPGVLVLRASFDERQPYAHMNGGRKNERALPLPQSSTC
For assay [16], the target named is Calcium/calmodulin-dependent protein kinase type II subunit gamma (Homo sapiens, UniProt Q13555).
Assay [17] deals with Vascular endothelial growth factor receptor 1 (Homo sapiens, UniProt P17948).
In assay [18] the target is Serine/threonine-protein kinase PAK 6 (Homo sapiens, UniProt Q9NQU5).
The target of assay [19] is T1, Dual specificity protein kinase TTK (Homo sapiens, UniProt P33981).
T1 sequence (P33981 whole entry): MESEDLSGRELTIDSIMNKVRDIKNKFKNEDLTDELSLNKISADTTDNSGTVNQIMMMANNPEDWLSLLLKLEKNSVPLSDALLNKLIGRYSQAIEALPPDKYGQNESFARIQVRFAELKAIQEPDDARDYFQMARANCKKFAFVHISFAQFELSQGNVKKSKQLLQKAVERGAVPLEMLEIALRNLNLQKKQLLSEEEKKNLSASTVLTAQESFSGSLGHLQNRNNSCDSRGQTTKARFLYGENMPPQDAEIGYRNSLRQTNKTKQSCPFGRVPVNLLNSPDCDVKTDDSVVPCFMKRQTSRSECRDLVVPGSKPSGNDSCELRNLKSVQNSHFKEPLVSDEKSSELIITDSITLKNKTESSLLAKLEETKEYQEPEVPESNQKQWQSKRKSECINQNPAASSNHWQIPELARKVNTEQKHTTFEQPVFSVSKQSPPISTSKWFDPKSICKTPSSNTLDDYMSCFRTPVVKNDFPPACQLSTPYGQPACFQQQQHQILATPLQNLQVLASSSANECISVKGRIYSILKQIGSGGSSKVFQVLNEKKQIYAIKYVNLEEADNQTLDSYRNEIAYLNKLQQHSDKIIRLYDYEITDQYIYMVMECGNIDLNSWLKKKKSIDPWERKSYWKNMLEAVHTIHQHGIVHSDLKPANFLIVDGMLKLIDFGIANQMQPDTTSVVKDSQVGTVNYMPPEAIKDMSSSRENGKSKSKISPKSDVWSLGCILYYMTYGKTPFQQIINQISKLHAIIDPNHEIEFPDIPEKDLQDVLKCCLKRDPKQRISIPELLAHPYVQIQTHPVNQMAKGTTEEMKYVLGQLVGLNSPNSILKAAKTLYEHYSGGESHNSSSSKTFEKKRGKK

For assay [20], the target named is Serine/threonine-protein kinase SIK2 (Homo sapiens, UniProt Q9H0K1).
Assay [21] addresses Ribosomal protein S6 kinase alpha-2 (Homo sapiens, UniProt Q15349).
Assay [22] has as its target Atypical kinase COQ8A, mitochondrial (Homo sapiens, UniProt Q8NI60).
The target of assay [23] is Mitogen-activated protein kinase 10 (Homo sapiens, UniProt P53779).
Assay [24] concerns the target Phosphatidylinositol 4,5-bisphosphate 3-kinase catalytic subunit alpha isoform (Homo sapiens, UniProt P42336, E545K).
The target of assay [25] is Cyclin-dependent kinase 8 (Homo sapiens, UniProt P49336).

Chain of Tyrosine-protein kinase JAK1 (P23458 whole entry): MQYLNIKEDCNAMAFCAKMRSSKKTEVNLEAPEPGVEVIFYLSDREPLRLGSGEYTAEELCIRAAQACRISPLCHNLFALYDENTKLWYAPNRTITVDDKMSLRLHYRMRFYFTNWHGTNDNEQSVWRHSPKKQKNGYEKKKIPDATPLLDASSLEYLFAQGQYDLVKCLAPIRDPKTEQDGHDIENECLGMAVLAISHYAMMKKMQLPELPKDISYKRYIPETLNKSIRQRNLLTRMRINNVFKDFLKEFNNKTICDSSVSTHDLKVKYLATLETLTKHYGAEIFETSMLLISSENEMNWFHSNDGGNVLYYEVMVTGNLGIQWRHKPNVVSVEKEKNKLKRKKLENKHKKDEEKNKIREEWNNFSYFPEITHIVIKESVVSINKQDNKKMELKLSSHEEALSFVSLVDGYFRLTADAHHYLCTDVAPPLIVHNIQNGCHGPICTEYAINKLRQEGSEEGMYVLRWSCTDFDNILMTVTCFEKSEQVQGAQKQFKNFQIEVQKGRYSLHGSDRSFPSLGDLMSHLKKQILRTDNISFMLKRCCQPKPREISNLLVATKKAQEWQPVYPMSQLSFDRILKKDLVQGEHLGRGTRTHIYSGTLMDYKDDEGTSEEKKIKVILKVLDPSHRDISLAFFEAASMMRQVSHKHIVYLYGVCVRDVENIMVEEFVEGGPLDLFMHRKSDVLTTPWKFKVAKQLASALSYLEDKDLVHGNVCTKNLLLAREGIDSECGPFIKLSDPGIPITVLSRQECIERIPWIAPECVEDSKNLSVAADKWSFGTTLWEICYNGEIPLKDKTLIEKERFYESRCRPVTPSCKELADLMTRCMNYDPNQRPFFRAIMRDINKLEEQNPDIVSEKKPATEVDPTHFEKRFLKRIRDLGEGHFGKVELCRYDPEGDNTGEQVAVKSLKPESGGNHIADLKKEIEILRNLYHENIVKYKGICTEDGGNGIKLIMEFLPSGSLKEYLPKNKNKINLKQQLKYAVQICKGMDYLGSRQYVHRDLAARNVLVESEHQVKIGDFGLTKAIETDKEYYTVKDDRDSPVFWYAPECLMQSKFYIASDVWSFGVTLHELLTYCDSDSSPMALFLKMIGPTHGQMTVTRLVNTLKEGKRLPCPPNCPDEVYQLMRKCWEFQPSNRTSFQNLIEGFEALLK
Chain of Cyclin-dependent kinase 17 (Q00537 whole entry): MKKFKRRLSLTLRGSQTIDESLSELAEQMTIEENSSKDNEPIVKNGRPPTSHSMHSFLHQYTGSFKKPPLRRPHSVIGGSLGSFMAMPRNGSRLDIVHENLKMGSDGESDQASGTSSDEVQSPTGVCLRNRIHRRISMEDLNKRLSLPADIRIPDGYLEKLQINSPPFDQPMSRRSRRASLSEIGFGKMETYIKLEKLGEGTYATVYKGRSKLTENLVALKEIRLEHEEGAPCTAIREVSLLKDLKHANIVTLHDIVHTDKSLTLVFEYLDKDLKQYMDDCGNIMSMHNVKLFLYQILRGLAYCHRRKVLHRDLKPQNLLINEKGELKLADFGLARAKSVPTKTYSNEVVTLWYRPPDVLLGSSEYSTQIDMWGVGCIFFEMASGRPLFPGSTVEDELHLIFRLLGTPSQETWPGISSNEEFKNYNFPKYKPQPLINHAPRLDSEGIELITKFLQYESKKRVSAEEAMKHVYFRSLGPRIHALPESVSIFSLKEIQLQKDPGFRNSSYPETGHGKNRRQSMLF

Compound `CCN1CCN(Cc2ccc(NC(=O)Nc3ccc(Oc4cc(NC)ncn4)cc3)cc2C(F)(F)F)CC1` [AST-487] showed a pKd in assay [1] of less than 5.00.
As for `COCC(=O)NC/C=C/c1ccc2ncnc(Nc3ccc(Oc4ccc(C)nc4)c(C)c3)c2c1` [CP-724714], the negative-log Kd (pKd) in [2], in [3], in assay [4], in assay [5], in [6] and in [7] was less than 5.00 in each case. For the same compound, the pKd in assay [8], in [9], in assay [10], in [11], in assay [12] and in [13] was less than 5.00 in each case. For the same compound, the pKd in assay [14], in assay [15], in assay [1], in assay [16], in assay [17] and in assay [18] was less than 5.00 in each case. Also, the negative logarithm of the Kd (pKd) in [19], in assay [20], in [21], in assay [22] and in assay [23] was less than 5.00 in each case.
As to `Nc1nc(Nc2ccc(S(N)(=O)=O)cc2)nn1C(=O)c1c(F)cccc1F` [JNJ-7706621], the pKd in assay [24] is less than 5.00; in [7], less than 5.00; in [8], 6.44; in assay [12] it was less than 5.00; in assay [14] it was less than 5.00; in assay [16], less than 5.00. Also, the pKd in assay [21] was less than 5.00.
As for `CCOc1cc2ncc(C#N)c(Nc3ccc(F)c(Cl)c3)c2cc1NC(=O)/C=C/CN(C)C` [PELITINIB], the negative logarithm of the Kd (pKd) in assay [3], in assay [6], in assay [24], in [7], in [25] and in assay [9] was less than 5.00 in each case. The pKd was less than 5.00 in [10]; less than 5.00 in [11]; less than 5.00 in assay [12]; less than 5.00 in assay [13]; 5.06 in assay [14]; less than 5.00 in assay [15]. Besides, the negative-log Kd (pKd) in [1] was less than 5.00; in [16] it was less than 5.00; in assay [17], less than 5.00; in assay [18], less than 5.00; in assay [19], less than 5.00; in [21], 5.06. The pKd in [22] and in assay [23] was less than 5.00 each time.
As to `Oc1ccc(-c2nc(-c3ccncc3)c(-c3ccc(F)cc3)[nH]2)cc1` [SB-202190], the pKd in [2], in assay [3], in assay [4], in assay [5], in assay [6] and in assay [24] was less than 5.00 throughout. Moreover, the pKd in [7], in [8], in [25], in [9], in assay [10] and in [11] was less than 5.00 in each case. In addition, the pKd in assay [12], in assay [13], in assay [14], in assay [15], in assay [1] and in assay [16] was less than 5.00 throughout. Besides, the negative-log Kd (pKd) in [17] is less than 5.00; in [18], less than 5.00; in assay [19], 5.35; in assay [20], less than 5.00; in [21], less than 5.00; in assay [22], less than 5.00. For the same compound, the pKd in [23] is 7.38.
As to `NC(=O)c1ccc(-c2nc(-c3ccc4c(c3)OCO4)c(-c3ccccn3)[nH]2)cc1` [SB-431542], the pKd in assay [2], in assay [3], in assay [4], in [5], in assay [6] and in [24] was less than 5.00 throughout. The pKd in assay [7], in assay [8], in assay [25], in assay [9], in assay [10] and in assay [11] was less than 5.00 in each case. Moreover, the pKd in assay [12], in [13], in assay [14], in assay [15], in [1] and in assay [16] was less than 5.00 each time. For the same compound, the pKd in [17], in assay [18], in [19], in assay [20], in [21] and in assay [22] was less than 5.00 throughout. Also, the negative logarithm of the Kd (pKd) in assay [23] is less than 5.00.

Broadly, the pKd is the negative decadic logarithm of the Kd, by convention in mol/L.
